Laboratory results reported in US20210085742A1, “FRUIT EXTRACT AND USES THEREOF” (THE UNIVERSITY OF NOTTINGHAM, priority 2017, published 2021).

Key:
[1] = system: mice; experiment: mouse in vivo toxicity study; conditions: oral, 2000 mg/kg everyday for 14 days vs water control
[2] = system: cancer cells; experiment: dose calculation for inhibition of growth of cancer cells; design: species or system human
[3] = system: Neuroligin 1 (5'UTR) luciferase reporter; experiment: Neuroligin 1 5'UTR firefly luciferase reporter; type: cell-based
Excerpt: (§1) Transient transfection conditions and luciferase reporter constructs—Firefly luciferase reporter plasmids containing the 5′ untranslated regions (UTRs) of the genes Neuroligin 1 and Neuroligin 2 were a kind gift from Professor Nahum Sonenberg (McGill) and used as described by Gkogkas et al, 2013. Nature, 17; 371-377.
(§2) Cells were transfected using FuGene 6 (Roche) following the manufacturer's instructions. The activities of firefly and Renilla luciferase in lysates prepared from transfected cells were measured using a commercially available Luciferase reporter assay system (Promega) and light emission was measured over a 10 sec interval using either a TECAN luminometer. For each experiment described, data was obtained from a minimum of at least 3 biological repetitions per treatment.

[4] = system: Lung Carcinoma (A549); experiment: anti-proliferative activity, wst-1, lung cancer cell line; type: cell-based, human
Procedure: Human tissue culture experiments—lung (A549), ovarian (OVCAR-3, SKOV), breast (MDA-MB-231) and prostate (PC-3) cancer cell lines were chosen to provide a broad profile of different cancer cell types and their response to treatment with the natural compound. Cell were seeded as a mono-layer in 96 well flat bottom Nunc tissue culture plates at a density of 10,000 cells per well and supplemented with RPMI 1640 media (Sigma Aldrich) containing 10% foetal calf serum, penicillin and streptomycin. Cells were then treated for 72 hours with a range of concentrations of MGDG either DMSO soluble, media soluble sample or the pure synthetic molecule. Four biological repetitions were tested for each dose. Activity of each treatment was then assessed using wst-1 reagent (Roche) as per the manufacturer's instructions. Data was visualised using a victor plate reader (Perkin Elmer) at a wavelength of 450 nm.

[5] = system: IL-6; experiment: IL-6 inflammatory activity in IL-1α+TNFα treated cells; type: cell-based; conditions: dose of about 10 μg
[6] = system: Neuroligin 2 5'UTR luciferase reporter; experiment: Neuroligin 2 5'UTR firefly luciferase reporter; type: cell-based
Excerpt: as §1, §2

CC/C=C\C/C=C\C/C=C\CCCCCCCC(=O)OC[C@H](COC1OC(CO)C(O)C(O)C1O)OC(=O)CCCCCCC/C=C\C/C=C\C/C=C\CC (some centres unmarked) [MGDG, monogalactosyl diacylglycerol]
survival or weight / toxicity [1]: no difference in survival or weight | inhibition in the growth of cancer cells ([2]; daily dose of approximately 11 mgs, human): 50% | inhibition in the growth of cancer cells ([2]; dose of approximately 5.5 mgs in a 60kg human): 30% | effect on Neuroligin 1 reporter [3]: can be dampened | reduction in the levels of Neuroligin 1 ([3]; 10 μM dose, luciferase reporter system): about 35% | anti-cancer / anti-proliferative activity [4]: anti-proliferative effects | reduction of IL-6 inflammatory activity [5]: ~80% | effect on Neuroligin 2 reporter activity [6]: unaffected
